In patent publication US6573060B1, “Methods and compositions for targeting DNA metabolic processes using aminoglycoside derivatives” (University of Virginia Patent Foundation, priority 1997, dated 2003):

Columns and labels:
[1] = target: T1, DNA-dependent ATPase A (Bos taurus, UniProt Q9TTA5); experiment: Inhibition of ATP hydrolysis by DNA-dependent ATPase A (overexpressed 82 kDa ADAAD); format: biochemical, bovine; conditions: for inhibition of DNA-dependent ATPase A activity (in words): in vitro
T1 sequence (Q9TTA5 222-940): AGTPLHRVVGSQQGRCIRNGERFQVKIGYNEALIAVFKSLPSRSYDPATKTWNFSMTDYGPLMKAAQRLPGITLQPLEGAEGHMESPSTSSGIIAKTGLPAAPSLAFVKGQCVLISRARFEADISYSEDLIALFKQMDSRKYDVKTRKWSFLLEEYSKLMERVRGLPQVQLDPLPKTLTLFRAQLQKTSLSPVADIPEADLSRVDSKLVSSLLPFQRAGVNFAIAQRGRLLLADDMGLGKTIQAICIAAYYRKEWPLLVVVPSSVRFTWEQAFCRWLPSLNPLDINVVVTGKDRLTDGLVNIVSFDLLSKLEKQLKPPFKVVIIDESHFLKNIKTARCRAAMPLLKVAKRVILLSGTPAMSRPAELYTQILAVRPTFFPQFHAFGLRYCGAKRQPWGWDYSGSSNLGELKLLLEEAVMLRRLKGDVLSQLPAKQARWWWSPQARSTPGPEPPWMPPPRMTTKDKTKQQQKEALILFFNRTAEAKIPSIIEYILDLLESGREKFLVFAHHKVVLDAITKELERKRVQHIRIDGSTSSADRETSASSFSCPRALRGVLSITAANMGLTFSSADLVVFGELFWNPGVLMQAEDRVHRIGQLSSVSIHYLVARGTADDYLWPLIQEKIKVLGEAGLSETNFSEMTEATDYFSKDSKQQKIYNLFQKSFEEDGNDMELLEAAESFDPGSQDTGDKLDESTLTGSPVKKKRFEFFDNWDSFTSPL
Method: Enzyme (0.2 units (one unit is the amount of enzyme required to hydrolyze 1 μmole of adenosine triphosphate per min)) was mixed with 50 mM Tris-SO4, pH 7.5, 1 mM MgCl2, 5 mM β-mercaptoethanol, 0.5 mg/mL bovine serum albumin, 2 mM phosphoenol pyruvate, 0.03 mg/mL pyruvate kinase, 10 nM of stem-loop DNA, and 2 mM adenosine triphosphate in a total volume of 100 μL. The reaction was typically incubated at 37° C. for 10-60 minutes. At the end of the designated time, 225 μL of 10% sodium dodecyl sulfate and 350 μL of water were added to stop the reaction. Color development requires the addition of two reagents: 180 μL of reagent A (prepared by mixing equal volumes of 60 to 70% perchloric acid and 5% ammonium molybdate in water) and 45 μL of reagent B (0.2 g 1:2:4 aminonaphthol sulfonic acid, 12.0 g sodium metabisulfite, and 2.4 g sodium sulfite dissolved in 100 mL of water) was added. The reaction was incubated at room temperature for 10 minutes and the absorbance was read at 720 nm. The color development was time-dependent and therefore samples must be read at exactly 10 minutes.
Enzyme (0.2 units (one unit is the amount of enzyme required to hydrolyze 1 μmole of adenosine triphosphate per min)) was mixed with 25 mM Tris-acetate pH 7.5, 6 mM Mg(acetate)2, 60 mM KCl, 5 mM β-mercaptoethanol, 3 mM phosphoenol pyruvate, 10 units/mL pyruvate kinase, 10 units/mL lactate dehydrogenase 10 nM DNA, 2 mM adenosine triphosphate, and 0.1 mg/mL NADH in a final volume of 1 mL. The progress of the reaction at 37° C. was monitored at 340 nm using an HP8452 spectrophotometer.
Enzyme (0.2 U) was mixed with 50 mM Tris-SO4, pH 7.5, 1 mM MgCl2, 5 mM β-mercaptoethanol, 0.5 mg/mL bovine serum albumin, 2 mM phosphoenol pyruvate, 0.03 mg/mL pyruvate kinase, 10 nM of stem-loop DNA, and 2 mM adenosine triphosphate in a total volume of 50 μL. Three (3) μCi of [^32P]-γ-adenosine triphosphate was added to the reaction and typical incubation was for 60 minutes 37° C. EDTA (25 mM) was added to stop the reaction. 10 μL of the reaction was spotted on a poly(ethylenimine)-cellulose plate. The plate was developed using 0.9M LiCl and 7M urea as solvent system. The plate was allowed to dry and autoradiographed either using X-OMAT film or a phosphorimager. […]

[2] = system: LNCaP cell line; experiment: MTS cell survival assay, LNCaP prostate cancer cells; format: cell-based; conditions: Homo sapiens, 120 h, 8 wells, 5 days
Method: (§1) The effect of phosphoaminoglycosides on tumor cell growth was tested in cell culture inhibition studies. 5000 cells were plated in a total volume of 50 μl in a 96 well titer plate. After 24 hours, 50 μl of media and drugs, to the required final concentration, were added. The plates were incubated at 37° C. for 5 days. On the 5th day, the fraction of surviving cells was estimated using a non-radioactive cell proliferation assay (CellTiter 96 AQueous Cell Proliferation Assay from Promega).
This is a colorimetric assay that determines the number of viable cells. The assay measures the bioreduction of a tetrazolium compound (3-(4,5-dimethylthiazol-2-yl)-5-(3-carboxymethoxyphenyl)-2-(4-sulfophenyl)-2H-tetrazolium, inner salt; MTS), via an electron coupling reagent (phenazine methosulfate; PMS), to formazan, which is soluble in the tissue culture medium. The absorbance of formazan at 490 nm can be measured from the 96 well assay plate without additional processing. The conversion of MTS into the aqueous soluble formazan is accomplished by dehydrogenase enzymes found in metabolically active cells. The quantity of formazan product as measured by the amount of 490 nm absorbance is directly proportional to the number of living cells in culture. […] 20 μl of PMS/MTS solution was added to the cells and the plates were incubated at 37° C. for 2 hours before measuring the absorbance at 490 nm. […]

[3] = system: PC3 cell line; experiment: MTS cell survival assay, PC3 prostate cancer cells; format: cell-based, human; conditions: FIG. 8, day five
Method: as §1
This is a colorimetric assay that determines the number of viable cells. The assay measures the bioreduction of a tetrazolium compound (3-(4,5-dimethylthiazol-2-yl)-5-(3-carboxymethoxyphenyl)-2-(4-sulfophenyl)-2H-tetrazolium, inner salt; MTS), via an electron coupling reagent (phenazine methosulfate; PMS), to formazan, which is soluble in the tissue culture medium. The absorbance of formazan at 490 nm can be measured from the 96 well assay plate without additional processing. The conversion of MTS into the aqueous soluble formazan is accomplished by dehydrogenase enzymes found in metabolically active cells. The quantity of formazan product as measured by the amount of 490 nm absorbance is directly proportional to the number of living cells in culture. 100 μl of the PMS reagent (Promega) was mixed with 2.0 ml of MTS solution (Promega). 20 μl of PMS/MTS solution was added to the cells and the plates were incubated at 37° C. for 2 hours before measuring the absorbance at 490 nm.
In an initial experiment, four drugs (A-kanamycin, B-phosphokanamycin, C-neomycin, and D-phosphoneomycin) were added to prostate cancer cell cultures in a blind fashion. Two prostate cancer cell lines were incubated with each of the drugs and assayed for cell survivability using the MTS assay (Promega).
5000 cells were grown overnight in media and each respective drug (A-kanamycin, B-phosphokanamycin, C-neomycin, and D-phosphoneomycin) was added on the second day. […] Each point is the average of readings from three wells.

[4] = system: Entamoeba histolytica; experiment: Entamoeba histolytica culture growth; format: cell-based; conditions: 72 h, read-out: concentration that completely kills the cells
Method: Entamoeba histolytica HMl-ISS strain was used for the experiment. The cells were grown in tissue culture medium TYI-S-33 containing trypticase, yeast extract, iron and serum along with 100 units/ml penicillin and […] streptomycin sulfate. 500,000 amoebae were incubated in 2 mls of media. The drugs were added to the required final concentration. The total number of amoebae was counted every 24 hours after the addition of drugs using light microscope. Growth was monitored over a period of 72 hours.

NC[C@H]1O[C@H](O[C@H]2[C@H](O)[C@@H](O[C@H]3O[C@H](CO)[C@@H](O)[C@H](N)[C@H]3O)[C@H](N)C[C@@H]2N)[C@H](O)[C@@H](OP(=O)(O)O)[C@@H]1O [phosphokanamycin, 3′-phosphokanamycin]
Ki ([1]; Table 4, determined in the presence of effector): 0.58 µM | Ki ([1]; kinetic analysis of ATP hydrolysis, competitive with respect to DNA): ~0.2 µM | inhibition of DNA-dependent ATPase A activity (in words) [1]: inhibitor | inhibition of DNA-dependent ATPase A activity (in words) ([1]; listed as 3′-phosphokanamycin): potent competitive (with respect to DNA) inhibitor | decrease in amount of drug required for a given level of inhibition / potency relative to the parent aminoglycoside ([1]; phosphorylated derivative vs parent): 1000 fold | viability at 100 µM [2]: 109 ± 9% | effect on PC3 cells (in words) [3]: effective in killing the PC3 cells | IC (100 (complete killing)) [4]: 200 µM
